{"source": "patent US6544985B2", "about": "“Dihydro-benzo [b][1,4]diazepin-2-one derivatives” (Hoffman-La Roche Inc., priority 2001, dated 2003)"}
{"units": {"melting point": "°C"}}
{"compound": "CC(C)N(C)c1cc2c(cc1C(F)(F)F)NC(=O)CC(c1cccc(-n3nncc3CO)c1)=N2", "note": "[Example 119, 4-[3-(5-Hydroxymethyl-[1,2,3]triazol-1-yl)-phenyl]-7-(isopropyl-methyl-amino)-8-trifluoromethyl-1,3-dihydro-benzo[b][1,4]diazepin-2-one]", "melting point": 234}
{"compound": "Cc1cc(-c2cccc(C3=Nc4cc(N(C)C(C)C)c(C(F)(F)F)cc4NC(=O)C3)c2)on1", "note": "[Example 120, 7-(Isopropyl-methyl-amino)-4-[3-(3-methyl-isoxazol-5-yl)-phenyl]-8-trifluoromethyl-1,3-dihydro-benzo[b][1,4]diazepin-2-one]", "melting point": 199}
{"compound": "CCCN(C)c1cc2c(cc1Cl)NC(=O)CC(c1cccc(-n3nncc3CN(CC)CC)c1)=N2", "note": "[Example 123, 8-Chloro-4-[3-(5-diethylaminomethyl-[1,2,3]triazol-1-yl)-phenyl]-7-(methyl-propyl-amino)-1,3-dihydro-benzo[b][1,4]diazepin-2-one]", "melting point": 151}
{"compound": "CCCN(C)c1cc2c(cc1Cl)NC(=O)CC(c1cccc(-n3nncc3CN(C)C(C)C)c1)=N2", "note": "[Example 124, 8-Chloro-4-(3-{5-[(isopropyl-methyl-amino)-methyl]-[1,2,3]triazol-1-yl}-phenyl)-7-(methyl-propyl-amino)-1,3-dihydro-benzo[b][1,4]diazepin-2-one]", "melting point": 148}
{"compound": "CC(C)N(C)c1cc2c(cc1Cl)NC(=O)CC(c1cccc(-n3nncc3CN3CCCC3)c1)=N2", "note": "[Example 125, 8-Chloro-7-(isopropyl-methyl-amino)-4-[3-(5-pyrrolidin-1-ylmethyl-[1,2,3]triazol-1-yl)-phenyl]-1,3-dihydro-benzo[b][1,4]diazepin-2-one]", "melting point": 172}
{"compound": "CC(C)CN(C)c1cc2c(cc1Cl)NC(=O)CC(c1cccc(-n3nncc3CN3CCCC3)c1)=N2", "note": "[Example 126, 8-Chloro-7-(isobutyl-methyl-amino)-4-[3-(5-pyrrolidin-1-ylmethyl-[1,2,3]triazol-1-yl)-phenyl]-1,3-dihydro-benzo[b][1,4]diazepin-2-one]", "melting point": 190}
{"compound": "CC(C)CN(C)c1cc2c(cc1Cl)NC(=O)CC(c1cccc(-n3nncc3CN(C)C)c1)=N2", "note": "[Example 128, 8-Chloro-4-[3-(5-dimethylaminomethyl-[1,2,3]triazol-1-yl)-phenyl]-7-(isobutyl-methyl-amino)-1,3-dihydro-benzo[b][1,4]diazepin-2-one]", "melting point": 199}
{"compound": "CC(C)N(C)c1cc2c(cc1Cl)NC(=O)CC(c1cccc(-n3nncc3CN3CCC3)c1)=N2", "note": "[Example 129, 4-[3-(5-Azetidin-1-ylmethyl-[1,2,3]triazol-1-yl)-phenyl]-8-chloro-7-(isopropyl-methyl-amino)-1,3dihydro-benzo[b][1,4]diazepin-2-one]", "melting point": 177}
{"compound": "CC(C)CN(C)c1cc2c(cc1Cl)NC(=O)CC(c1cccc(-n3nncc3CN3CCC3)c1)=N2", "note": "[Example 130, 4-[3-(5-Azetidin-1-ylmethyl-[1,2,3]triazol-1-yl)-phenyl]-8-chloro-7-(isobutyl-methyl-amino)-1,3-dihydro-benzo[b][1,4]diazepin-2-one]", "melting point": 191}
{"compound": "Cc1cc2c(cc1N(C)CC(C)C)N=C(c1cccc(-n3nncc3CO)c1)CC(=O)N2", "note": "[Example 132, 4-[3-(5-Hydroxymethyl-[1,2,3]triazol-1-yl)-phenyl]-7-(isobutyl-methyl-amino)-8-methyl-1,3-dihydro-benzo[b][1,4]diazepin-2-one]", "melting point": 198}
{"compound": "Cc1cc(-c2cccc(C3=Nc4cc(N(C)CC(C)C)c(C)cc4NC(=O)C3)c2)on1", "note": "[Example 134, 7-(Isobutyl-methyl-amino)-8-methyl-4-[3-(3-methyl-isoxazol-5-yl)-phenyl]-1,3-dihydro-benzo[b][1,4]diazepin-2-one]", "melting point": 187}
{"compound": "Cc1cc(-c2cccc(C3=Nc4cc(N5CCCC5)c(C)cc4NC(=O)C3)c2)on1", "note": "[Example 135, 8-Methyl-4-[3-(3-methyl-isoxazol-5-yl)-phenyl]-7-pyrrolidin-1-yl-1,3-dihydro-benzo[b][1,4]diazepin-2-one]", "melting point": 211}
{"compound": "CC(C)CN(C)c1cc2c(cc1C(F)(F)F)NC(=O)CC(c1cccc(-n3nncc3CN(C)C)c1)=N2", "note": "[Example 136, 4-[3-(5-Dimethylaminomethyl-[1,2,3]triazol-1-yl)-phenyl]-7-(isobutyl-methyl-amino)-8-trifluoromethyl-1,3-dihydro-benzo[b][1,4]diazepin-2-one]", "melting point": 182}
{"compound": "CC(C)CN(C)c1cc2c(cc1C#N)NC(=O)CC(c1cccc(-n3nncc3CN3CCCC3)c1)=N2", "note": "[Example 137, 8-(Isobutyl-methyl-amino)-4-oxo-2-[3-(5-pyrrolidin-1-ylmethyl-[1,2,3]triazol-1-yl)-phenyl]-4,5-dihydro-3H-benzo[b][1,4]diazepine-7-carbonitrile]", "melting point": 174}
{"compound": "Cc1cc2c(cc1N(C)CC(C)C)N=C(c1cccc(-n3nncc3CN3CCCC3)c1)CC(=O)N2", "note": "[Example 139, 7-(Isobutyl-methyl-amino)-8-methyl-4-[3-(5-pyrrolidin-1-ylmethyl-[1,2,3]triazol-1-yl)-phenyl]-1,3-dihydro-benzo[b][1,4]diazepin-2-one]", "melting point": 177}
{"compound": "CC(C)CN(C)c1cc2c(cc1C(F)(F)F)NC(=O)CC(c1cccc(-n3nncc3CN(C)C(C)C)c1)=N2", "note": "[Example 141, 7-(Isobutyl-methyl-amino)-4-(3-{5-[(isopropyl-methyl-amino)-methyl]-[1,2,3]triazol-1yl}-phenyl)-8-trifluoromethyl-1,3-dihydro-benzo[b][1,4]diazepin-2-one]", "melting point": 157}
{"compound": "CC(C)N(C)c1cc2c(cc1Cl)NC(=O)CC(c1cccc(-n3nncc3CNC3CCCC3)c1)=N2", "note": "[Example 142, 8-Chloro-4-[3-(5-cyclopentylaminomethyl-[1,2,3]triazol-1-yl)-phenyl]-7-(isopropyl-methyl-amino)-1,3-dihydro-benzo[b][1,4]diazepin-2-one]", "melting point": 174}
{"compound": "Cc1cc2c(cc1N(C)CC(C)C)N=C(c1cccc(-n3nncc3CNCC3CC3)c1)CC(=O)N2", "note": "[Example 143, 4-(3-{5-[(Cyclopropylmethyl-amino)-methyl]-[1,2,3]triazol-1-yl}-phenyl)-7-(isobutyl-methyl-amino)-8-methyl-1,3-dihydro-benzo[b][1,4]diazepin-2-one]", "melting point": 184}
{"compound": "CC(C)CN(C)c1cc2c(cc1Cl)NC(=O)CC(c1cccc(-n3nncc3CN3CCCCC3)c1)=N2", "note": "[Example 144, 8-Chloro-7-(isobutyl-methyl-amino)-4-[3-(5-piperidin-1-ylmethyl-[1,2,3]triazol-1-yl)-phenyl]-1,3-dihydro-benzo[b][1,4]diazepin-2-one]", "melting point": 169}
{"compound": "CC(C)NCc1cnnn1-c1cccc(C2=Nc3cc(N(C)C(C)C)c(Cl)cc3NC(=O)C2)c1", "note": "[Example 145, 8-Chloro-4-{3-[5-(isopropylamino-methyl)-[1,2,3]triazol-1-yl]-phenyl}-7-(isopropyl-methyl-amino)-1,3-dihydro-benzo[b][1,4]diazepin-2-one]", "melting point": 208}
{"compound": "COCCN(C)Cc1cnnn1-c1cccc(C2=Nc3cc(N(C)C(C)C)c(Cl)cc3NC(=O)C2)c1", "note": "[Example 146, 8-Chloro-7-(isopropyl-methyl-amino)-4-[3-(5-{[(2-methoxy-ethyl)-methyl-amino]-methyl}-[1,2,3]triazol-1-yl)-phenyl]-1,3-dihydro-benzo[b][1,4]diazepin-2-one]", "melting point": 119}
